# From ChEMBL document CHEMBL4715697, “Synthesis and biological activity of benzamide DNA minor groove binders” (2016)
# Assays:
# Type in all cases: functional
# SN12C = test: Growth inhibition of human SN12C cells assessed as cell growth at 0.01 uM incubated for 48 hrs by sulforhodamine B assay relative to control; details: read-out: Activity
# UACC-62 [1] = test: Growth inhibition of human UACC-62 cells assessed as cell growth at 1 uM incubated for 48 hrs by sulforhodamine B assay relative to control; details: read-out: Activity
# LOX IMVI = test: Growth inhibition of human LOX IMVI cells incubated for 48 hrs by sulforhodamine B assay
# HCT-15 = test: Growth inhibition of human HCT-15 cells assessed as cell growth at 100 uM incubated for 48 hrs by sulforhodamine B assay relative to control; details: read-out: Activity
# SF-295 = test: Growth inhibition of human SF-295 cells assessed as cell growth at 100 uM incubated for 48 hrs by sulforhodamine B assay relative to control; details: read-out: Activity
# 786-0 [2] = test: Growth inhibition of human 786-0 cells assessed as cell growth at 0.01 uM incubated for 48 hrs by sulforhodamine B assay relative to control; details: read-out: Activity
# COLO 205 = test: Growth inhibition of human COLO 205 cells assessed as cell growth at 0.1 uM incubated for 48 hrs by sulforhodamine B assay relative to control; details: read-out: Activity
# OVCAR-3 = test: Growth inhibition of human OVCAR-3 cells assessed as cell growth at 1 uM incubated for 48 hrs by sulforhodamine B assay relative to control; details: read-out: Activity
# SR = test: Growth inhibition of human SR cells assessed as cell growth at 100 uM incubated for 48 hrs by sulforhodamine B assay relative to control; details: read-out: Activity
# SK-MEL-5 = test: Growth inhibition of human SK-MEL-5 cells assessed as cell growth at 1 uM incubated for 48 hrs by sulforhodamine B assay relative to control; details: read-out: Activity
# HCT-116 [3] = test: Growth inhibition of human HCT-116 cells assessed as cell growth at 0.1 uM incubated for 48 hrs by sulforhodamine B assay relative to control; details: read-out: Activity
# OVCAR-4 = test: Growth inhibition of human OVCAR-4 cells assessed as cell growth at 0.01 uM incubated for 48 hrs by sulforhodamine B assay relative to control; details: read-out: Activity
# A498 = test: Growth inhibition of human A498 cells assessed as cell growth at 0.01 uM incubated for 48 hrs by sulforhodamine B assay relative to control; details: read-out: Activity
# RPMI-8226 = test: Growth inhibition of human RPMI-8226 cells assessed as cell growth at 0.1 uM incubated for 48 hrs by sulforhodamine B assay relative to control; details: read-out: Activity
# A549 = test: Growth inhibition of human A549/ATCC cells incubated for 48 hrs by sulforhodamine B assay
# NCI-H226 = test: Growth inhibition of human NCI-H226 cells incubated for 48 hrs by sulforhodamine B assay
# TK-10 = test: Growth inhibition of human TK-10 cells assessed as cell growth at 100 uM incubated for 48 hrs by sulforhodamine B assay relative to control; details: read-out: Activity
# MDA-MB-435 = test: Growth inhibition of human MDA-MB-435 cells assessed as cell growth at 1 uM incubated for 48 hrs by sulforhodamine B assay relative to control; details: read-out: Activity
# Malme-3M = test: Growth inhibition of human Malme-3M cells incubated for 48 hrs by sulforhodamine B assay
# NCI-H460 = test: Growth inhibition of human NCI-H460 cells assessed as cell growth at 100 uM incubated for 48 hrs by sulforhodamine B assay relative to control; details: read-out: Activity
# UACC-62 [4] = test: Growth inhibition of human UACC-62 cells assessed as cell growth at 0.1 uM incubated for 48 hrs by sulforhodamine B assay relative to control; details: read-out: Activity
# 786-0 [5] = test: Growth inhibition of human 786-0 cells incubated for 48 hrs by sulforhodamine B assay
# HCT-116 [6] = test: Growth inhibition of human HCT-116 cells assessed as cell growth at 100 uM incubated for 48 hrs by sulforhodamine B assay relative to control; details: read-out: Activity
# SW-620 = test: Growth inhibition of human SW-620 cells assessed as cell growth at 100 uM incubated for 48 hrs by sulforhodamine B assay relative to control; details: read-out: Activity
# SK-OV-3 = test: Growth inhibition of human SK-OV-3 cells assessed as cell growth at 0.01 uM incubated for 48 hrs by sulforhodamine B assay relative to control; details: read-out: Activity
# ACHN = test: Growth inhibition of human ACHN cells assessed as cell growth at 1 uM incubated for 48 hrs by sulforhodamine B assay relative to control; details: read-out: Activity
# K562 [7] = test: Growth inhibition of human K562 cells assessed as cell growth at 100 uM incubated for 48 hrs by sulforhodamine B assay relative to control; details: read-out: Activity
# K562 [8] = test: Growth inhibition of human K562 cells assessed as cell growth at 0.1 uM incubated for 48 hrs by sulforhodamine B assay relative to control; details: read-out: Activity
# EKVX = test: Growth inhibition of human EKVX cells incubated for 48 hrs by sulforhodamine B assay
# CCRF-CEM = test: Growth inhibition of human CCRF-CEM cells assessed as cell growth at 100 uM incubated for 48 hrs by sulforhodamine B assay relative to control; details: read-out: Activity
# NCI-H23 = test: Growth inhibition of human NCI-H23 cells assessed as cell growth at 0.1 uM incubated for 48 hrs by sulforhodamine B assay relative to control; details: read-out: Activity
# NCI-H322M = test: Growth inhibition of human NCI-H322M cells incubated for 48 hrs by sulforhodamine B assay
# HT-29 = test: Growth inhibition of human HT-29 cells incubated for 48 hrs by sulforhodamine B assay
# [9] = read-out: LC50 (the source's name)
# [10] = read-out: pLC50 (the source's name) (converted)
structure (smiles),measurement,setting,value
CC(=O)Nc1cc(CCl)cc(NC(=O)c2ccc(C(=O)Nc3cccc(NC(=O)CCCN(C)C)c3)cc2)c1,growth at 0.01 µM,SN12C,104%
same,growth at 1 µM,UACC-62 [1],102%
same,GI50,LOX IMVI; read-out: GI50,> 100 µM
same,LC50 (concentration giving 50% cell kill),LOX IMVI; read-out: LC50,> 100 µM
same,TGI,LOX IMVI; read-out: TGI,> 100 µM
same,GI50,LOX IMVI; read-out: pGI50 (converted),> 100 µM
same,LC50 (concentration giving 50% cell kill),LOX IMVI; read-out: pLC50 (converted),> 100 µM
same,TGI,LOX IMVI; read-out: pTGI,> 100 µM
same,growth at 100 µM,HCT-15,84%
same,growth at 100 µM,SF-295,38%
same,growth at 0.01 µM,786-0 [2],106%
same,growth at 0.1 µM,COLO 205,108%
same,growth at 1 µM,OVCAR-3,109%
same,growth at 100 µM,SR,99%
same,growth at 1 µM,SK-MEL-5,93%
same,growth at 0.1 µM,HCT-116 [3],107%
same,growth at 0.01 µM,OVCAR-4,99%
same,growth at 0.01 µM,A498,67%
same,growth at 0.1 µM,RPMI-8226,113%
same,GI50,A549; read-out: GI50,> 100 µM
same,CC50,A549; [9],> 100 µM
same,TGI,A549; read-out: TGI,> 100 µM
same,GI50,A549; read-out: pGI50 (converted),> 100 µM
same,CC50,A549; [10],> 100 µM
same,TGI,A549; read-out: pTGI,> 100 µM
same,GI50,NCI-H226; read-out: GI50,> 100 µM
same,CC50,NCI-H226; [9],> 100 µM
same,TGI,NCI-H226; read-out: TGI,> 100 µM
same,GI50,NCI-H226; read-out: pGI50 (converted),> 100 µM
same,CC50,NCI-H226; [10],> 100 µM
same,TGI,NCI-H226; read-out: pTGI,> 100 µM
same,growth at 100 µM,TK-10,129%
same,growth at 1 µM,MDA-MB-435,97%
same,GI50,Malme-3M; read-out: GI50,> 100 µM
same,LC50 (concentration killing 50% of cells),Malme-3M; read-out: LC50,> 100 µM
same,TGI,Malme-3M; read-out: TGI,> 100 µM
same,GI50,Malme-3M; read-out: pGI50 (converted),> 100 µM
same,LC50 (concentration killing 50% of cells),Malme-3M; read-out: pLC50 (converted),> 100 µM
same,TGI,Malme-3M; read-out: pTGI,> 100 µM
same,growth at 100 µM,NCI-H460,99%
same,growth at 0.1 µM,UACC-62 [4],103%
same,GI50,786-0 [5]; read-out: GI50,> 100 µM
same,LC50,786-0 [5]; read-out: LC50,> 100 µM
same,TGI,786-0 [5]; read-out: TGI,> 100 µM
same,GI50,786-0 [5]; read-out: pGI50 (converted),> 100 µM
same,LC50,786-0 [5]; read-out: pLC50 (converted),> 100 µM
same,TGI,786-0 [5]; read-out: pTGI,> 100 µM
same,growth at 100 µM,HCT-116 [6],82%
same,growth at 100 µM,SW-620,92%
same,growth at 0.01 µM,SK-OV-3,106%
same,growth at 1 µM,ACHN,96%
same,growth at 100 µM,K562 [7],106%
same,growth at 0.1 µM,K562 [8],99%
same,GI50,EKVX; read-out: GI50,> 100 µM
same,LC50,EKVX; read-out: LC50,> 100 µM
same,TGI,EKVX; read-out: TGI,> 100 µM
same,GI50,EKVX; read-out: pGI50 (converted),> 100 µM
same,LC50,EKVX; read-out: pLC50 (converted),> 100 µM
same,TGI,EKVX; read-out: pTGI,> 100 µM
same,growth at 100 µM,CCRF-CEM,-70%
same,growth at 0.1 µM,NCI-H23,98%
same,GI50,NCI-H322M; read-out: GI50,> 100 µM
same,CC50,NCI-H322M; [9],> 100 µM
same,TGI,NCI-H322M; read-out: TGI,> 100 µM
same,GI50,NCI-H322M; read-out: pGI50 (converted),> 100 µM
same,CC50,NCI-H322M; [10],> 100 µM
same,TGI,NCI-H322M; read-out: pTGI,> 100 µM
same,GI50,HT-29; read-out: GI50,> 100 µM
same,CC50,HT-29; [9],> 100 µM
same,TGI,HT-29; read-out: TGI,> 100 µM
same,GI50,HT-29; read-out: pGI50 (converted),> 100 µM
same,CC50,HT-29; [10],> 100 µM
same,TGI,HT-29; read-out: pTGI,> 100 µM
